According to US4218443A, “Polyether ionophores as antiobesity and hypotriglyceridemic agents” (Hoffmann-La Roche Inc., priority 1979, dated 1980):

What was measured:
[1] = test system: meal-fed Charles River rats; assay: Food consumption and serum parameters in meal-fed rats (in vivo fatty acid synthesis experiments); set-up: species or system Charles River rat; conditions: sodium salt, mean ± SE
Experimental: (§1) In the following examples, female rats (Charles River CD strain, 180-200 g) were housed individually in wire bottom cages in a temperature (22°) and light (12 hr light and 12 hr dark) regulated room. They had free access to Purina Rodent Chow and water.
Faster enzymatic procedure for serum triglycerides, Clinical Chemistry, 21: 1983-1985], cholesterol, [C. C. Allain, L. Poon, S. G. Chan, W. Richmond and P. Fu (1974). Enzymatic determination of total serum cholesterol, Clinical Chemistry, 20: 470-475] and glucose, [R. Konig, H. Dauwalder and R. Richterich (1971). Vergleichende Bestimmunogen der Uringlucosekonzentration mit der Polarimetrie und einer enzymatischen Methode (Hexokinase/Glucose-6-Phosphat-Dehydrogenase), Schweiz. Med. Wschr., 101: 860-866] by enzymatic procedures.

[2] = test system: rats in the five day two hour meal model; assay: Five day two hour meal model; format: in vivo, rat; conditions: sodium salt, mean ± SE
Experimental: A five day two hour meal model was developed to evaluate the effects of lipase inhibitors in vivo. [^14 C]-triolein and [^3 H]cholesterol were included in the 10% corn oil meal on days one and five. Test compound was administered as a dietary admix. Compound was first mixed into the fat component of the diet before the dry components were added. Food consumption and body weight gain were determined. Feces were collected from day two to day four. Rats were killed on day five and the small intestine and contents were removed for analysis.

[3] = test system: obese and lean female Zucker rats; assay: Chronic 21 day experiment in obese and lean Zucker rats; format: in vivo, Zucker rat; conditions: 150 mg/kg b.i.d. oral, 21 days, sodium salt, mean ± SE
Source text: Ad libitum fed lean and genetically obese Zucker rats (140 days old) were used in one chronic study.
Faster enzymatic procedure for serum triglycerides, Clinical Chemistry, 21: 1983-1985], cholesterol, [C. C. Allain, L. Poon, S. G. Chan, W. Richmond and P. Fu (1974). Enzymatic determination of total serum cholesterol, Clinical Chemistry, 20: 470-475] and glucose, [R. Konig, H. Dauwalder and R. Richterich (1971). Vergleichende Bestimmungen der Uringlucosekonzentration mit der Polarimetrie und einer enzymatischen Methode (Hexokinase/Glucose-6-Phosphat-Dehydrogenase), Schweiz. Med. Wschr., 101: 860-866], by enzymatic procedures and free fatty acids, [C. Dalton and C. Kowalski (1967). Automated colorimetric determination of free fatty acids in biologic fluids, Clinical Chemistry, 13: 744-751], by a Colorimetric procedure. Serum immunoreactive insulins were determined by radioimmunoassay, [G. F. Bryce, P. R. Johnson, A. C. Sullivan, J. S. Stern (1977). Insulin and glucagon: Plasma levels and pancreatic release in the gentically obese Zucker rat, Hormone and Metabolic Research, 9: 366-370].
FIG. 2 sets forth body weight gain values of rats matched for initial body weight and pair fed 10% corn oil diet without dinitrodescarboxylasalocid and three groups of pair fed rats receiving 60, 120 and 240 mg/kg of dinitrodescarboxylasalocid as dietary admixes for 31 days respectively. […] Tables 12 and 13 describe the effects of dinitrodescarboxylasalocid (150 mg/kg b.i.d. by oral intubation) in genetically obese and lean Zucker rats for 21 days.

[4] = biological target: rat epididyml lipoprotein lipase (Rattus norvegicus, UniProt Q06000); conditions: read-out: I50 lipoprotein lipase; rat epididyml lipoprotein lipase in vitro
rat epididyml lipoprotein lipase, sequence (Q06000 28-474): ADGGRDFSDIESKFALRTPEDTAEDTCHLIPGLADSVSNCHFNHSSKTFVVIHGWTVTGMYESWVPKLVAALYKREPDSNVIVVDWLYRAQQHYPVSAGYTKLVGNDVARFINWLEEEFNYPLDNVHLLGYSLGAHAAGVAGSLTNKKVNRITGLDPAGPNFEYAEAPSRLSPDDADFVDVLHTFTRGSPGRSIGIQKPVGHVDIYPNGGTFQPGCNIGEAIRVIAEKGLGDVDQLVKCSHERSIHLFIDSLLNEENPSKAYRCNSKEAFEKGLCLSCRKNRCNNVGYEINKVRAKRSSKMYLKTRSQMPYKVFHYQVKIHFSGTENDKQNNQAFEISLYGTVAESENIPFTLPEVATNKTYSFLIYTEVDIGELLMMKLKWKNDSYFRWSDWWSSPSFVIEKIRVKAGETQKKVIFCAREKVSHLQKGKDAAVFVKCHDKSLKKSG
Experimental: Acetone powders of Zucker rat epididyml adipose tissue were the source of lipoprotein lipase and were prepared by the method of Garfinkel and Schotz, [A. S. Garfinkel and M. C. […] The adipose tissue was removed quickly and immediately homogenized in acetone (15 ml per gram of adipose tissue) in a Waring Blender at high speed for one minute, then filtered quickly through a coarse fritted glass funnel. The extract was washed twice with acetone (3 ml per gram of adipose tissue), then washed two more times with anhydrous ethyl ether (3 ml per gram adipose tissue). The powder was dried under vacuum for one hour, weighed and stored desiccated at -70° C. Approximately 0.013 g acetone powder was obtained per gram of epididyml adipose tissue. The lipoprotein lipase was extracted from the acetone powder into 0.05 M NH4 OH-NH4 Cl buffer, pH 8.6. The extracts were prepared by homogenizing the acetone powder in buffer in a TenBroeck glass tissue grinder in ice. The homogenate was centrifuged at 2,000×g for 20 min to remove insoluble material.
Ionophores were added to the above assays as solutions in either water or DMSO.

[5] = test system: hepatic fatty acid synthesis; assay: In vivo hepatic fatty acid synthesis in meal-fed rats; set-up: species or system Charles River rat; conditions: sodium salt, mean ± SE
Experimental: as §1

SMILES: CC[C@@H](C(=O)[C@@H](C)[C@@H](O)[C@H](C)CCc1c([N+](=O)[O-])cc(C)c(O)c1[N+](=O)[O-])[C@H]1O[C@](CC)([C@H]2CC[C@](O)(CC)[C@H](C)O2)C[C@@H]1C [Dinitrodescarboxylasalocid]
- Food Consumption ([1]; 60 mg/kg i.p.): 15.7 ± 0.4 g
- Food Consumption ([1]; Experiment 1, 240 mg/kg p.o.): 11.0 ± 0.8 g
- Serum Cholesterol ([1]; Experiment 1, 240 mg/kg p.o.): 85 ± 7 mg/100 ml
- Serum Glucose ([1]; Experiment 1, 240 mg/kg p.o.): 194 ± 9 mg/100 ml
- Serum Triglycerides ([1]; Experiment 1, 240 mg/kg p.o.): 42 ± 5 mg/100 ml
- Food Consumption ([1]; Experiment 2, 60 mg/kg p.o.): 8.8 ± 1.0 g
- Serum Cholesterol ([1]; Experiment 2, 60 mg/kg p.o.): 84 ± 3 mg/100 ml
- Serum Glucose ([1]; Experiment 2, 60 mg/kg p.o.): 165 ± 6 mg/100 ml
- Serum Triglycerides ([1]; Experiment 2, 60 mg/kg p.o.): 40 ± 4 mg/100 ml
- Food Consumption ([1]; Experiment 2, 120 mg/kg p.o.): 10.7 ± 1.0 g
- Serum Cholesterol ([1]; Experiment 2, 120 mg/kg p.o.): 82 ± 6 mg/100 ml
- Serum Glucose ([1]; Experiment 2, 120 mg/kg p.o.): 168 ± 7 mg/100 ml
- Serum Triglycerides ([1]; Experiment 2, 120 mg/kg p.o.): 31 ± 2 mg/100 ml
- Food Consumption ([1]; Experiment 2, 240 mg/kg p.o.): 9.4 ± 1.1 g
- Serum Cholesterol ([1]; Experiment 2, 240 mg/kg p.o.): 76 ± 7 mg/100 ml
- Serum Glucose ([1]; Experiment 2, 240 mg/kg p.o.): 183 mg/100 ml
- Serum Triglycerides ([1]; Experiment 2, 240 mg/kg p.o.): 31 ± 5 mg/100 ml
- 3H-Cholesterol in Feces ([2]; 120 mg/kg dietary admix): 28.6 ± 3.9 % of ingested
- 14C in Feces ([2]; 120 mg/kg dietary admix): 2.4 ± 0.7 % of ingested
- Body weight gain (BWG) ([2]; 120 mg/kg dietary admix): -1 ± 3 g
- Fat Absorption ([2]; 120 mg/kg dietary admix): 95.6 ± 0.5%
- Intestinal Cholsterol Esters ([2]; 120 mg/kg): 7.7 ± 1.2 % of 14C-lipid
- Intestinal Contents 3H-cholesterol ([2]; 120 mg/kg): 1.7 ± 0.2 % ingested
- Intestinal Contents 14C-lipid ([2]; 120 mg/kg): 0.75 ± 0.10 % ingested
- Intestinal Free Fatty Acids ([2]; 120 mg/kg): 61.9 ± 1.3 % of 14C-lipid
- Intestinal Mono- and Diglyceride ([2]; 120 mg/kg): 15.3 ± 1.3 % of 14C-lipid
- Intestinal Triglyceride ([2]; 120 mg/kg): 9.1 ± 0.8 % of 14C-lipid
- 3H-Cholesterol in Feces ([2]; 240 mg/kg dietary admix): 34.1 ± 2.6 % of ingested
- 14C in Feces ([2]; 240 mg/kg dietary admix): 4.4 ± 0.8 % of ingested
- Body weight gain (BWG) ([2]; 240 mg/kg dietary admix): -3 ± 2 g
- Fat Absorption ([2]; 240 mg/kg dietary admix): 92.8 ± 0.7%
- Food Consumption ([2]; 240 mg/kg dietary admix): 7.2 ± 0.5 g/day
- Intestinal Cholsterol Esters ([2]; 240 mg/kg): 7.1 ± 0.8 % of 14C-lipid
- Intestinal Contents 3H-cholesterol ([2]; 240 mg/kg): 1.2 ± 0.2 % ingested
- Intestinal Contents 14C-lipid ([2]; 240 mg/kg): 0.66 ± 0.13 % ingested
- Intestinal Free Fatty Acids ([2]; 240 mg/kg): 59.6 ± 2.6 % of 14C-lipid
- Intestinal Mono- and Diglyceride ([2]; 240 mg/kg): 15.9 ± 0.9 % of 14C-lipid
- Intestinal Triglyceride ([2]; 240 mg/kg): 10.3 ± 0.7 % of 14C-lipid
- Body Weight Gain ([3]; Fa/- (lean)): 20 ± 4 g
- Fat Absorption ([3]; Fa/- (lean)): 90.1 ± 0.9%
- Fecal Weight ([3]; Fa/- (lean)): 1.6 ± 0.1 g
- Final Body Weight ([3]; Fa/- (lean)): 202 ± 5 g
- Food Consumption ([3]; Fa/- (lean)): 16.8 ± 0.8 g/day
- Serum Cholesterol ([3]; Fa/- (lean)): 84 ± 7 mg/100 ml
- Serum Free Fatty Acids ([3]; Fa/- (lean)): 519 ± 58 μeq/l
- Serum Glucose ([3]; Fa/- (lean)): 154 ± 6 mg/100 ml
- Serum IRI (immunoreactive insulin) ([3]; Fa/- (lean)): 0.5 ± 0.1 ng/mL
- Serum Triglycerides ([3]; Fa/- (lean)): 71 ± 5 mg/100 ml
- Body Weight Gain ([3]; fa/fa (obese)): 61 ± 6 g
- Fat Absorption ([3]; fa/fa (obese)): 93.0 ± 1.1%
- Fecal Weight ([3]; fa/fa (obese)): 2.1 ± 0.1 g
- Final Body Weight ([3]; fa/fa (obese)): 352 ± 12 g
- Food Consumption ([3]; fa/fa (obese)): 19.5 ± 0.9 g/day
- Serum Cholesterol ([3]; fa/fa (obese)): 168 ± 6 mg/100 ml
- Serum Free Fatty Acids ([3]; fa/fa (obese)): 668 ± 59 μeq/l
- Serum Glucose ([3]; fa/fa (obese)): 201 ± 12 mg/100 ml
- Serum IRI (immunoreactive insulin) ([3]; fa/fa (obese)): 8.3 ± 0.6 ng/mL
- Serum Triglycerides ([3]; fa/fa (obese)): 178 ± 19 mg/100 ml
- IC50 [4]: 270 µM
- Fatty Acid Synthesis 3H2O converted ([5]; 60 mg/kg i.p.): 12.5 ± 2.1 μmoles per 1 g liver in 30 min
- Fatty Acid Synthesis [14C]alanine converted ([5]; 60 mg/kg i.p.): 208 ± 42 nmoles per 1 g liver in 30 min
- Fatty Acid Synthesis 3H2O converted ([5]; Experiment 1, 240 mg/kg p.o.): 17.1 ± 3.5 μmoles per 1 g liver per 30 mi
- Fatty Acid Synthesis [14C]alanine converted ([5]; Experiment 1, 240 mg/kg p.o.): 250 ± 87 nmoles per 1 g liver per 30 mi
- Fatty Acid Synthesis 3H2O converted ([5]; Experiment 2, 60 mg/kg p.o.): 17.0 ± 3.1 μmoles per 1 g liver per 30 mi
- Fatty Acid Synthesis [14C]alanine converted ([5]; Experiment 2, 60 mg/kg p.o.): 711 ± 130 nmoles per 1 g liver per 30 mi
- Fatty Acid Synthesis 3H2O converted ([5]; Experiment 2, 120 mg/kg p.o.): 18.7 ± 2.1 μmoles per 1 g liver per 30 mi
- Fatty Acid Synthesis [14C]alanine converted ([5]; Experiment 2, 120 mg/kg p.o.): 696 ± 80 nmoles per 1 g liver per 30 mi
- Fatty Acid Synthesis 3H2O converted ([5]; Experiment 2, 240 mg/kg p.o.): 12.6 ± 1.4 μmoles per 1 g liver per 30 mi
- Fatty Acid Synthesis [14C]alanine converted ([5]; Experiment 2, 240 mg/kg p.o.): 510 ± 64 nmoles per 1 g liver per 30 mi
